From US6569451B1, “Targeted polymerized liposome diagnostic and treatment agents” (Targesome, Inc., priority 1994, dated 2003)

Experiments:
[1] = rat, in vivo; cited from earlier work
[2] = Magnetic resonance relaxivity (R1, R2) of paramagnetic polymerized liposomes; assay type: physicochemical
From the text: We have constructed paramagnetic polymerized liposomes using the above techniques with 2.5 to 100 mol % of the gadolinium chelated diamide shown in FIG. 4, with the polyethylene glycol linker m=1 and m=2, and sizes ranging from 30 nm to 200 nm in diameter. We have determined the maximum T1 relaxivity, showing the best contrast, is obtained with 15% gadolinium chelated diamide and 85% DAPC with m=2 and having 200 nm particle size. High relaxivity is also observed with 30% gadolinium chelated diamide and 70% PDA with m=1 and having a variable particle size of about 10 to about 200 nm.
Similar measurements were made using PDA liposomes as the matrix lipid and the gadolinium chelated diamide (m=1).

molar relaxivity per Gd^+3 ion [2]: 4.2 mM⁻¹ s⁻¹
R1 ([2]; DAPC matrix lipid, gadolinium-diamide %, linker m and size as in label): 4.4 s⁻¹ mM⁻¹
SMILES: O=C([O-])CN(CCN(CC(=O)[O-])CC(=O)O)CCN(CC(=O)[O-])CC(=O)O.[Gd+3] [Gd (DTPA), gadolinium diethylenetriaminepentaacetic acid]
elimination from the blood pool [1]: within a few minutes
